Data from patent US8822508B2, “2-oxo-1-pyrrolidinyl imidazothiadiazole derivatives” (UCB Pharma, S.A., priority 2009, dated 2014).

Conditions: Gower A. J. et al., Eur. J. Pharmacol. (1992), 222, 193-203; cited from earlier work

Structure (SMILES)	activity in the treatment of epilepsy (seizure control)
CC[C@H](C(N)=O)N1CCCC1=O [(R)-α-ethyl-2-oxo-1-pyrrolidine acetamide]	completely lacks activity

Conditions: not given

melting point [°C]	Structure (SMILES)
70	COCc1nn2c(CN3CC(CC(C)(F)F)CC3=O)c(C(F)(F)F)nc2s1 (single isomer, unassigned; (+)) [Compound 2, (+)-4-(2,2-difluoropropyl)-1-{[2-(methoxymethyl)-6-(trifluoromethyl)imidazo[2,1-b][1,3,4]thiadiazol-5-yl]methyl}pyrrolidin-2-one]
67	COCc1nn2c(CN3CC(CC(C)(F)F)CC3=O)c(C(F)(F)F)nc2s1 (single isomer, unassigned; (-)) [Compound 3, (−)-4-(2,2-difluoropropyl)-1-{[2-(methoxymethyl)-6-(trifluoromethyl)imidazo[2,1-b][1,3,4]thiadiazol-5-yl]methyl}pyrrolidin-2-one]
72	COCc1nn2c(CN3C[C@@H](CC(F)(F)F)CC3=O)c(C(F)(F)F)nc2s1 [Compound 11, (4R)-1-{[2-(methoxymethyl)-6-(trifluoromethyl)imidazo[2,1-b][1,3,4]thiadiazol-5-yl]methyl}-4-(2,2,2-trifluoroethyl)pyrrolidin-2-one]
73	COCc1nn2c(CN3C[C@H](CC(F)(F)F)CC3=O)c(C(F)(F)F)nc2s1 [Compound 12, (4S)-1-{[2-(methoxymethyl)-6-(trifluoromethyl)imidazo[2,1-b][1,3,4]thiadiazol-5-yl]methyl}-4-(2,2,2-trifluoroethyl)pyrrolidin-2-one]

Second part, the compound before the results:

Structure (SMILES)	melting point [°C]
COCc1nn2c(CN3CC(CC(F)(F)Cl)CC3=O)c(C(F)F)nc2s1 (single isomer, unassigned; (+)) [Compound 23, (+)-4-(2-chloro-2,2-difluoroethyl)-1-{[6-(difluoromethyl)-2-(methoxymethyl)imidazo[2,1-b][1,3,4]thiadiazol-5-yl]methyl}pyrrolidin-2-one]	73
COCc1nn2c(CN3CC(CCC(F)(F)F)CC3=O)c(Cl)nc2s1 (single isomer, unassigned; (+)) [Compound 27, (+)-1-{[6-chloro-2-(methoxymethyl)imidazo[2,1-b][1,3,4]thiadiazol-5-yl]methyl}-4-(3,3,3-trifluoropropyl)pyrrolidin-2-one]	60
O=C1C[C@H](CC(F)(F)Cl)CN1Cc1c(C(F)(F)F)nc2sc(CO)nn12 [Compound 8, (4R)-4-(2-chloro-2,2-difluoroethyl)-1-{[2-(hydroxymethyl)-6-(trifluoromethyl)imidazo[2,1-b][1,3,4]thiadiazol-5-yl]methyl}pyrrolidin-2-one]	154
